Reference: patent publication US20170037014A1, “FUNGICIDAL PYRAZOLES” (E. I. DU PONT DE NEMOURS AND COMPANY, priority 2014, published 2017)

Assays:
[1] = test system: Puccinia recondita f sp. tritici; experiment: Test A: wheat leaf rust, preventive spray on wheat seedlings, visual disease rating; assay type: in vivo; conditions: 50 ppm (*), 100 = 100% disease control, 0 = no control
From the text: General protocol for preparing test suspensions for Tests A-D: the test compounds were first dissolved in acetone in an amount equal to 3% of the final volume and then suspended at the desired concentration (in ppm) in acetone and purified water (50/50 mix by volume) containing 250 ppm of the surfactant Trem® 014 (polyhydric alcohol esters). The resulting test suspensions were then used in Tests A-D. The test suspension was sprayed to the point of run-off on wheat seedlings. The following day the seedlings were inoculated with a spore suspension of Puccinia recondita f sp. tritici (the causal agent of wheat leaf rust) and incubated in a saturated atmosphere at 20° C. for 24 h, and then moved to a growth chamber at 20° C. for 7 days, after which time visual disease ratings were made. In the Table, a rating of 100 indicates 100% disease control and a rating of 0 indicates no disease control (relative to the controls). A dash (−) indicates no test results. All results are for 250 ppm except where followed by an “*” which indicates 50 ppm, and where followed by an “**” which indicates 10 ppm

[2] = test system: Septoria tritici; experiment: Test B: wheat leaf blotch, preventive spray on wheat seedlings, visual disease rating; assay type: in vivo; conditions: Zymoseptoria tritici, 50 ppm (*), 100 = 100% disease control, 0 = no control
From the text: General protocol for preparing test suspensions for Tests A-D: the test compounds were first dissolved in acetone in an amount equal to 3% of the final volume and then suspended at the desired concentration (in ppm) in acetone and purified water (50/50 mix by volume) containing 250 ppm of the surfactant Trem® 014 (polyhydric alcohol esters). The resulting test suspensions were then used in Tests A-D. The test suspension was sprayed to the point of run-off on wheat seedlings. The following day the seedlings were inoculated with a spore suspension of Septoria tritici (the causal agent of wheat leaf blotch) and incubated in a saturated atmosphere at 24° C. for 48 h, and then moved to a growth chamber at 20° C. for 19 days, after which time visual disease ratings were made. In the Table, a rating of 100 indicates 100% disease control and a rating of 0 indicates no disease control (relative to the controls). A dash (−) indicates no test results. All results are for 250 ppm except where followed by an “*” which indicates 50 ppm, and where followed by an “**” which indicates 10 ppm

[3] = test system: Blumeria graminis f sp. tritici; experiment: Test D: wheat powdery mildew, preventive spray on wheat seedlings, visual disease rating; assay type: in vivo; conditions: Blumeria graminis, 50 ppm (*), 100 = 100% disease control, 0 = no control
From the text: General protocol for preparing test suspensions for Tests A-D: the test compounds were first dissolved in acetone in an amount equal to 3% of the final volume and then suspended at the desired concentration (in ppm) in acetone and purified water (50/50 mix by volume) containing 250 ppm of the surfactant Trem® 014 (polyhydric alcohol esters). The resulting test suspensions were then used in Tests A-D. The test suspension was sprayed to the point of run-off on wheat seedlings. The following day the seedlings were inoculated with a spore dust of Blumeria graminis f sp. tritici, (also known as Erysiphe graminis f. sp. tritici, the causal agent of wheat powdery mildew) and incubated in a growth chamber at 20° C. for 8 days, after which time visual disease ratings were made. In the Table, a rating of 100 indicates 100% disease control and a rating of 0 indicates no disease control (relative to the controls). A dash (−) indicates no test results. All results are for 250 ppm except where followed by an “*” which indicates 50 ppm, and where followed by an “**” which indicates 10 ppm

[4] = test system: Botrytis cinerea; experiment: Test C: tomato Botrytis, preventive spray on tomato seedlings, visual disease rating; assay type: in vivo; conditions: Botrytis cinerea, 50 ppm (*), 100 = 100% disease control, 0 = no control
From the text: General protocol for preparing test suspensions for Tests A-D: the test compounds were first dissolved in acetone in an amount equal to 3% of the final volume and then suspended at the desired concentration (in ppm) in acetone and purified water (50/50 mix by volume) containing 250 ppm of the surfactant Trem® 014 (polyhydric alcohol esters). The resulting test suspensions were then used in Tests A-D. The test suspension was sprayed to the point of run-off on tomato seedlings. The following day the seedlings were inoculated with a spore suspension of Botrytis cinerea (the causal agent of tomato Botrytis) and incubated in a saturated atmosphere at 20° C. for 48 h, and then moved to a growth chamber at 24° C. for 3 days, after which time visual disease ratings were made. In the Table, a rating of 100 indicates 100% disease control and a rating of 0 indicates no disease control (relative to the controls). A dash (−) indicates no test results. All results are for 250 ppm except where followed by an “*” which indicates 50 ppm, and where followed by an “**” which indicates 10 ppm

Row | melting point | Compound | pest or weed control at 50 ppm [1] | pest or weed control at 50 ppm [2] | pest or weed control at 50 ppm [3] | pest or weed control at 50 ppm [4]
1 | 114 to 117 °C | CCC(C)c1c(C(O)c2c(F)cc(F)cc2F)c(C)nn1C (stereo not drawn) [Compound 23, 1,3-dimethyl-5-(1-methylpropyl)-α-(2,4,6-trifluorophenyl)-1H-pyrazole-4-methanol] | 97% | 94% | 96% | 31%
2 | 128 to 131 °C | CCC(C)c1c(C(O)c2ccc(F)cc2Cl)c(C)nn1C (stereo not drawn) [Compound 9, α-(2-chloro-4-fluorophenyl)-1,3-dimethyl-5-(1-methylpropyl)-1H-pyrazole-4-methanol] | 100% | 99% | 99% | 99%
